Laboratory results: patent US10696615B2, “Prenylated hydroxystilbenes” (The University of Sydney, priority 2011, dated 2020)

Key:
CCRF-CEM = test: NCI in vitro cancer screen, Leukemia; type: cell-based, human
A549/ATCC = test: NCI in vitro cancer screen, Non-Small Cell Lung Cancer; type: cell-based, human
EKVX = test: as above; type: cell-based, human
NCI-H226 = test: as above; type: cell-based, human; details: NCI-H226
NCI-H322M = test: as above; type: cell-based, human
NCI-H522 = test: as above; type: cell-based, human; details: NCI-H522
HCC-2998 = test: NCI in vitro cancer screen, Colon Cancer; type: cell-based, human; details: HCC-2998
HCT-15 = test: NCI in vitro cancer screen, Colon Cancer; type: cell-based, human; details: HCT-15
KM12 = test: NCI in vitro cancer screen, Colon Cancer; type: cell-based, human; details: KM12
SW-620 = test: NCI in vitro cancer screen, Colon Cancer; type: cell-based, human; details: SW-620
SF-268 = test: NCI in vitro cancer screen, CNS Cancer; type: cell-based, human; details: SF-268
SF-539 = test: NCI in vitro cancer screen, CNS Cancer; type: cell-based; details: SF-539
SNB-75 = test: NCI in vitro cancer screen, CNS Cancer; type: cell-based, human; details: SNB-75
U251 = test: NCI in vitro cancer screen, CNS Cancer; type: cell-based, human; details: U251
MALME-3M = test: NCI in vitro cancer screen, Melanoma; type: cell-based, human
MDA-MB-435 = test: NCI in vitro cancer screen, Melanoma; type: cell-based, human; details: MDA-MB-435
SK-MEL-2 = test: NCI in vitro cancer screen, Melanoma; type: cell-based, human; details: SK-MEL-2
IGROV1 = test: NCI in vitro cancer screen, Ovarian Cancer; type: cell-based, human; details: IGROV1
OVCAR-3 = test: NCI in vitro cancer screen, Ovarian Cancer; type: cell-based, human; details: OVCAR-3
A498 = test: NCI in vitro cancer screen, Renal Cancer; type: cell-based, human; details: A498
ACHN = test: NCI in vitro cancer screen, Renal Cancer; type: cell-based, human
CAKI-1 = test: NCI in vitro cancer screen, Renal Cancer; type: cell-based, human; details: CAKI-1
SN12C = test: NCI in vitro cancer screen, Renal Cancer; type: cell-based, human
TK-10 = test: NCI in vitro cancer screen, Renal Cancer; type: cell-based, human; details: TK-10
PC-3 = test: NCI in vitro cancer screen, Prostate Cancer; type: cell-based, human; details: PC-3
MCF7 = test: NCI in vitro cancer screen, Breast Cancer; type: cell-based, human; details: MCF7
[1] = tested on: MDA-MB-231 (MDA-MB-231/ATCC); test: NCI in vitro cancer screen, Breast Cancer; type: cell-based, human; details: MDA-MB-231
HS 578T = test: NCI in vitro cancer screen, Breast Cancer; type: cell-based, human
[2] = Homo sapiens, read-out: LC50 (the source's name)

With `CC(C)=CCc1c(O)cc(/C=C/c2ccc(O)cc2)c(CC=C(C)C)c1O` [USYDS6, (E)-2,4-di(3-methyl-2-buten-1-yl)-3,4′,5-trihydroxystilbene] the TGI (CCRF-CEM) was 9.17 µM, the GI50 (CCRF-CEM; Homo sapiens) was 2.96 µM and the CC50 (CCRF-CEM; [2]) was 82.1 µM. For the same molecule, the TGI (A549/ATCC) was 8.42 µM, the GI50 (A549/ATCC; Homo sapiens) was 2.69 µM and the CC50 (A549/ATCC; [2]) was 33.7 µM. It also gave a TGI (EKVX) of 21.4 µM, a GI50 (EKVX; Homo sapiens) of 7.19 µM and a CC50 (EKVX; [2]) of 54.4 µM. For the same molecule, the GI50 (NCI-H226; Homo sapiens) was 1.47 µM, the TGI (NCI-H226) was 30.1 µM and the TGI (NCI-H322M) was 25.5 µM. For the same molecule, the GI50 (NCI-H322M; Homo sapiens) was 1.16 µM, the GI50 (NCI-H522; Homo sapiens) was 2.18 µM and the CC50 (NCI-H522; [2]) was 17.8 µM. For the same molecule, the TGI (NCI-H522) was 5.15 µM, the TGI (HCC-2998) was 8.78 µM and the GI50 (HCC-2998; Homo sapiens) was 2.81 µM. It also gave a CC50 (HCC-2998; [2]) of 32.2 µM, a TGI (HCT-15) of 6.26 µM and a GI50 (HCT-15; Homo sapiens) of 2.13 µM. It also gave a CC50 (HCT-15; [2]) of 48.2 µM, a GI50 (KM12; Homo sapiens) of 2.21 µM and a CC50 (KM12; [2]) of 8.64 µM. It also gave a TGI (KM12) of 4.37 µM, a GI50 (SW-620; Homo sapiens) of 1.84 µM and a CC50 (SW-620; [2]) of 6.82 µM. For the same molecule, the TGI (SW-620) was 3.54 µM, the GI50 (SF-268; Homo sapiens) was 2.78 µM and the CC50 (SF-268; [2]) was 44.3 µM. The TGI (SF-268) was 8.97 µM, the GI50 (SF-539; Homo sapiens) was 4.48 µM and the CC50 (SF-539; [2]) was 57.1 µM. For the same molecule, the TGI (SF-539) was 17.6 µM, the GI50 (SNB-75; Homo sapiens) was 6.67 µM and the CC50 (SNB-75; [2]) was 54 µM. It also gave a TGI (SNB-75) of 21.4 µM, a GI50 (U251; Homo sapiens, U-251) of 2.33 µM and a CC50 (U251; Homo sapiens, U-251, read-out: LC50 (the source's name)) of 16.7 µM. It also gave a TGI (U251) of 5.31 µM, a GI50 (MALME-3M; Homo sapiens, Malme-3M) of 2.8 µM and a CC50 (MALME-3M; Homo sapiens, Malme-3M, read-out: LC50 (the source's name)) of 37.1 µM. The TGI (MALME-3M; MALME-3M) was 8.56 µM, the GI50 (MDA-MB-435; Homo sapiens) was 3.37 µM and the CC50 (MDA-MB-435; [2]) was 42.1 µM. It also gave a TGI (MDA-MB-435) of 10.8 µM, a GI50 (SK-MEL-2; Homo sapiens) of 13.1 µM and a TGI (SK-MEL-2) of 33.6 µM. It also gave a GI50 (IGROV1; Homo sapiens, IGROV-1) of 5.23 µM, a CC50 (IGROV1; Homo sapiens, IGROV-1, read-out: LC50 (the source's name)) of 54.1 µM and a TGI (IGROV1) of 17.7 µM. The GI50 (OVCAR-3; Homo sapiens) was 2.1 µM, the CC50 (OVCAR-3; [2]) was 8.85 µM and the TGI (OVCAR-3) was 4.31 µM. It also gave a TGI (A498) of 25.0 µM, a GI50 (A498; Homo sapiens) of 11.7 µM and a CC50 (A498; [2]) of 53.1 µM. It also gave a TGI (ACHN) of 14.6 µM, a GI50 (ACHN; Homo sapiens) of 3.94 µM and a CC50 (ACHN; [2]) of 50.4 µM. For the same molecule, the TGI (CAKI-1) was 22.6 µM, the GI50 (CAKI-1; Homo sapiens) was 8.37 µM and the CC50 (CAKI-1; [2]) was 55.7 µM. The TGI (SN12C) was 7.98 µM, the GI50 (SN12C; Homo sapiens) was 2.85 µM and the CC50 (SN12C; [2]) was 30.8 µM. The GI50 (TK-10; Homo sapiens) was 3.36 µM, the TGI (TK-10) was 9.33 µM and the GI50 (PC-3; Homo sapiens) was 1.8 µM. For the same molecule, the CC50 (PC-3; [2]) was 8.44 µM, the TGI (PC-3) was 3.89 µM and the GI50 (MCF7; Homo sapiens) was 4.02 µM. For the same molecule, the CC50 (MCF7; [2]) was 60.5 µM, the TGI (MCF7) was 18.0 µM and the GI50 ([1]; Homo sapiens) was 1.72 µM. The CC50 [1, 2] was 17.2 µM, the TGI [1] was 4.54 µM and the TGI (HS 578T) was 5.29 µM. The GI50 (HS 578T; Homo sapiens) was 1.67 µM and the CC50 (HS 578T; [2]) was 35.8 µM.
